Results from article PMC10536189 (Microorganisms, 2023).
Like-named read-outs stand apart in the source and are kept apart here. Where no end group is shown, it is not given here.

What was measured:
[1] = tested on: M. tuberculosis; type: cell-based, Mycobacterium tuberculosis (laboratory strain H37Rv); details: for Time to Positivity (Days.Hours) Experiment 2a / Time to Positivity (Days.Hours) Experiment 2b / Time to Positivity (Days.Hours) Experiment 1a / Time to Positivity (Days.Hours) Experiment 1b / Effect on TTP of MTB in words / Time to Positivity (Days.Hours) Experiment 2 / Time to Positivity (Days.Hours) Experiment 1: MGIT; for Time to Positivity (Days.Hours) Experiment 2a / Time to Positivity (Days.Hours) Experiment 2b: diluted inoculum; for Time to Positivity (Days.Hours) Experiment 2a: technical repeat 2a, TB control (no peptide) 15.01; for Time to Positivity (Days.Hours) Experiment 2b: technical repeat 2b, TB control (no peptide) 15.20; for Time to Positivity (Days.Hours) Experiment 1a / Time to Positivity (Days.Hours) Experiment 1b: less diluted inoculum; for Time to Positivity (Days.Hours) Experiment 1a: technical repeat 1a, TB control (no peptide) 7.02; for Time to Positivity (Days.Hours) Experiment 1b: technical repeat 1b, TB control (no peptide) 7.01; for Time to Positivity (Days.Hours) Experiment 2: control (0 µg/mL) 6.12; for Time to Positivity (Days.Hours) Experiment 1: control (0 µg/mL) 6.19
[2] = tested on: Mycobacterium avium subsp. paratuberculosis (MAP); type: cell-based; details: for Effect on growth of MAP compared to control: peptide 20 µg/mL, 37 °C; for Effect on growth of MAP (growth-enhancing activity) of protease-stabilised peptides: peptide 10 µg/mL, absorbance at 600 nm
[3] = tested on: Mycobacterium tuberculosis (MTB); type: cell-based, Mycobacterium tuberculosis (laboratory strain H37Rv)
[4] = tested on: Mycobacterium avium-intracellulare; type: cell-based, Mycobacterium intracellulare serotype 7 NCTC10682; details: Peptide 14 at 20 µg/mL
[5] = tested on: Mycobacterium marinum; type: cell-based, Mycobacterium marinum NCTC 2275; details: Peptide 14 at 20 µg/mL, 30 °C
[6] = tested on: Mycobacterium celatum; type: cell-based, Mycobacterium celatum (clinical isolate); details: Peptide 14 at 20 µg/mL
[7] = tested on: M. bovis; type: cell-based
[8] = tested on: Mycobacterium abscessus; type: cell-based, Mycobacterium abscessus (clinical human isolate); details: Peptide 14 at 20 µg/mL
[9] = tested on: MTB H37Rv; type: cell-based, Mycobacterium tuberculosis H37Rv; details: 14D at 1 µg/mL
[10] = tested on: mycobacteria; assay: TTP in VersaTrek system; type: cell-based; details: Peptide 14D; VersaTrek (ThermoFisher); Figure S1
Protocol: (§1) Peptide 14D was used to check if other machines that are routinely used in medical microbiology for the detection of mycobacteria show shorter TTP as well. BacT/Alert (Biomerieux, Marcy-l’Étoile, France and VersaTrek (ThermoFisher, Waltham, MA, United States) were tested, and shorter TTP was shown for both systems (see Figure S1 in the Supplementary Materials).

[11] = tested on: mycobacteria; assay: TTP in BacT/Alert system; type: cell-based; details: Peptide 14D; BacT/Alert (Biomerieux); Figure S1
Protocol: as §1

[12] = peptide 10 µg/mL, overall average of the averages of experiments 1a/1b and 2a/2b, negative = slower
[13] = crude peptide 10 µg/mL, average of experiments 1 and 2, negative = slower

RLARIVVIRVRR-CONH2 (RLARIVVIRVRR-NH2) [Peptide 70]
Time to Positivity (Days.Hours) Experiment 2a ([1]; peptide 10 µg/mL): 14.22 Days.Hours | Time to Positivity (Days.Hours) Experiment 2b ([1]; peptide 10 µg/mL): 15.06 Days.Hours | Time to Positivity (Days.Hours) Experiment 1a ([1]; peptide 10 µg/mL): 6.03 Days.Hours | Time to Positivity (Days.Hours) Experiment 1b ([1]; peptide 10 µg/mL): 6.19 Days.Hours | Average % Faster than Control [1, 12]: 4.2% | Effect on growth of MAP compared to control [2]: no discernible effect on the growth

RLARIVVIRWAR-CONH2 (RLARIVVIRWAR-NH2) [Peptide 72]
Time to Positivity (Days.Hours) Experiment 2a ([1]; peptide 10 µg/mL): 15.01 Days.Hours | Time to Positivity (Days.Hours) Experiment 2b ([1]; peptide 10 µg/mL): 15.13 Days.Hours | Time to Positivity (Days.Hours) Experiment 1a ([1]; peptide 10 µg/mL): 6.22 Days.Hours | Time to Positivity (Days.Hours) Experiment 1b ([1]; peptide 10 µg/mL): 7.01 Days.Hours | Average % Faster than Control [1, 12]: −0.2% | Effect on growth of MAP compared to control [2]: significant reduction in the growth

RRWRIVVIRVRR-CONH2 (RRWRIVVIRVRR-NH2) [Peptide 69]
Effect on TTP of MTB in words ([1]; peptide 10 µg/mL): strong hormetic response | Time to Positivity (Days.Hours) Experiment 2a ([1]; peptide 10 µg/mL): 13.12 Days.Hours | Time to Positivity (Days.Hours) Experiment 2b ([1]; peptide 10 µg/mL): 13.02 Days.Hours | Time to Positivity (Days.Hours) Experiment 1a ([1]; peptide 10 µg/mL): 6.02 Days.Hours | Time to Positivity (Days.Hours) Experiment 1b ([1]; peptide 10 µg/mL): 6.02 Days.Hours | Average % Faster than Control [1, 12]: 12.8% | Effect on growth of MTB compared to control [3]: slight improvements

VNWKKILGKIIKVVK [Lasioglossin LL-III/Bee]
Time to Positivity (Day.Hours) Experiment 1 [1]: 9.18 Day.Hours | Time to Positivity (Day.Hours) Experiment 2 [1]: 8.08 Day.Hours | Average % Faster than Control [1, 13]: 13.1%

VRRFPWWWPFLRR [Tritrpticin/Pig]
Time to Positivity (Day.Hours) Experiment 1 [1]: 11.08 Day.Hours | Time to Positivity (Day.Hours) Experiment 2 [1]: 9.13 Day.Hours | Average % Faster than Control [1, 13]: −0.3%

WCFRVCYKGFCYRKCR [Polyphemusin/Crab *]
Time to Positivity (Day.Hours) Experiment 1 [1]: 11.05 Day.Hours | Time to Positivity (Day.Hours) Experiment 2 [1]: 8.13 Day.Hours | Average % Faster than Control [1, 13]: 5.6%

WGKLFKLGLHGIGLLH [NRC-15/Fish *]
Time to Positivity (Day.Hours) Experiment 1 [1]: 10.21 Day.Hours | Time to Positivity (Day.Hours) Experiment 2 [1]: 8.07 Day.Hours | Average % Faster than Control [1, 13]: 8.3%

WKIVFWWRR-NH2 [Peptide 14]
Effect on growth [4]: growth stimulating effect | Effect on TTP of MTB in words ([1]; peptide 10 µg/mL): strong hormetic response | Time to Positivity (Days.Hours) Experiment 2a ([1]; peptide 10 µg/mL): 13.23 Days.Hours | Time to Positivity (Days.Hours) Experiment 2b ([1]; peptide 10 µg/mL): 14.01 Days.Hours | Time to Positivity (Days.Hours) Experiment 1a ([1]; peptide 10 µg/mL): 6.01 Days.Hours | Time to Positivity (Days.Hours) Experiment 1b ([1]; peptide 10 µg/mL): 6.12 Days.Hours | Average % Faster than Control [1, 12]: 9.1% | Effect on growth [5]: growth stimulating effect | Concentration at which growth inhibition of MTB is observed [3]: 50 µg/mL | Effect on growth of MTB compared to control [3]: slight improvements | Upper end of concentration range with hormetic response / growth stimulation in MTB [3]: 10 µg/mL | Dependence of growth-enhancing effect on starting inoculum [2]: lower inocula being more greatly affected | Effect on growth of MAP compared to control [2]: strongest effects | Effect on growth [6]: growth stimulating effect | Effect on growth [7]: growth stimulating effect | Effect on growth [8]: enhance the growth

YAYVRIRGVLVRYRRC [Arenicin-2/Lugworm]
Time to Positivity (Day.Hours) Experiment 1 [1]: 11.13 Day.Hours | Time to Positivity (Day.Hours) Experiment 2 [1]: 8.03 Day.Hours | Average % Faster than Control [1, 13]: 6.3%

YQEPVLGPVRGPFPIIV [Casecidin 17/Cow]
Time to Positivity (Day.Hours) Experiment 1 [1]: 11.12 Day.Hours | Time to Positivity (Day.Hours) Experiment 2 [1]: 8.14 Day.Hours | Average % Faster than Control [1, 13]: 4.1%

rrwrivvirvrr-CONH2 [Peptide 69D]
Concentration at which growth inhibition of MTB is observed [3]: ≥ 10 µg/mL | Concentration with strong sustained growth stimulation of MTB [3]: 10 ng/mL | Effect on growth of MAP (growth-enhancing activity) of protease-stabilised peptides [2]: growth-enhancing activity remained

wkivfwwrr-CONH2 [Peptide 14D]
Copy number compared with MTB control [9]: higher copy number | Copy number ([9]; […], duplicates, cydA Taqman qPCR): 1762000 | Effect on TTP [10]: shorter TTP | Time to Positivity (Days.Hours) Experiment 2 ([1]; Peptide 14D 0.1 µg/mL): 5.19 Days.Hours | Time to Positivity (Days.Hours) Experiment 1 ([1]; Peptide 14D 0.1 µg/mL): 5.12 Days.Hours | Average % Faster than Control ([1]; Peptide 14D 0.1 µg/mL, average of two independent experiments): 15.0% | Time to Positivity (Days.Hours) Experiment 2 ([1]; Peptide 14D 0.5 µg/mL): 5.17 Days.Hours | Time to Positivity (Days.Hours) Experiment 1 ([1]; Peptide 14D 0.5 µg/mL): 5.17 Days.Hours | Average % Faster than Control ([1]; Peptide 14D 0.5 µg/mL, average of two independent experiments): 14.1% | Time to Positivity (Days.Hours) Experiment 2 ([1]; Peptide 14D 1 µg/mL): 5.08 Days.Hours | Time to Positivity (Days.Hours) Experiment 1 ([1]; Peptide 14D 1 µg/mL): 5.05 Days.Hours | Average % Faster than Control ([1]; Peptide 14D 1 µg/mL, average of two independent experiments): 21.6% | Increase of time to positivity, first experiment ([1]; Peptide 14D 10 µg/mL): 8 h | Increase of time to positivity, second experiment ([1]; Peptide 14D 10 µg/mL): 20 h | Time to Positivity (Days.Hours) Experiment 2 ([1]; Peptide 14D 10 µg/mL): 7.08 Days.Hours | Time to Positivity (Days.Hours) Experiment 1 ([1]; Peptide 14D 10 µg/mL): 7.03 Days.Hours | Average % Faster than Control ([1]; Peptide 14D 10 µg/mL, average of two independent experiments, negative = slower): −7.3% | Time to Positivity (Days.Hours) Experiment 2 ([1]; Peptide 14D 25 µg/mL): 9.17 Days.Hours | Time to Positivity (Days.Hours) Experiment 1 ([1]; Peptide 14D 25 µg/mL): 9.21 Days.Hours | Average % Faster than Control ([1]; Peptide 14D 25 µg/mL, average of two independent experiments, negative = slower): −48.7% | Delay of growth (days to reach positivity relative to control) ([1]; Peptide 14D 50 µg/mL): about triple | Time to Positivity (Days.Hours) Experiment 1 ([1]; Peptide 14D 50 µg/mL): 19.15 Days.Hours | Average % Faster than Control ([1]; Peptide 14D 50 µg/mL, average of two independent experiments, negative = slower): −207.6% | Concentration at which growth inhibition of MTB is observed [3]: ≥ 10 µg/mL | Concentration with strong sustained growth stimulation of MTB [3]: 1000 ng/mL | Growth enhancement after the peptide was removed [2]: reversible | Effect on growth of MAP (growth-enhancing activity) of protease-stabilised peptides [2]: small improvement in activity | Effect on TTP [11]: shorter TTP
